Assay results as given in patent US4618682A, “2-amino-4,5-dihydro-1H-imidazole-1-carboxanilides” (McNeilab, Inc., priority 1985, dated 1986).
Counter-ions that a name gives are not always drawn.

Tests used:
[1] = test system: Spontaneously hypertensive rat; test: Rodent Antihypertensive Screen (arterial pressure and heart rate, aortic cannula); assay type: in vivo, adult spontaneously hypertensive rats (Charles River); details: 35 mg/kg p.o., spontaneously hypertensive rat
Excerpt: This test evaluates compounds for effects on arterial pressure and heart rate. In this test, the arterial pressure of adult spontaneously hypertensive rats (Charles River) is monitored directly via an aortic cannula. Rats are anesthetized with an inhalation anesthetic (methoxyflurane). The left carotid artery is isolated and cannulated. The tip of the cannula is advanced to the aorta and the cannula is exteriorized behind the neck at the level of the scapula. Animals are placed in individual cages and allowed to recover from the anesthetic and are kept unrestrained. The arterial cannula is connected to the pressure transducer which is attached to the recorder. Heart rate is determined from the arterial pressure recording. The test compounds are administered either orally (p.o.) by gavage or by intraperitoneal (i.p.) injection. The arterial pressure and heart rate are monitored for a minumum of 24 hours. A test compound is considered to be active as an antihypertensive agent if the mean arterial pressure (MAP) indicates a fall of >15 mm of Hg. Each animal serves as his own control. The results of this test employing at least 3 rats per dose level for each compound and performed with various compounds of the present invention are shown in Table I.

Gastric fistula rat = test: acute gastric fistula rat test (antisecretory screen); assay type: in vivo, Female Sprague-Dawley rats
Method: The principal antisecretory screen is the acute gastric fistula rat test which is carried out as follows: Female Sprague-Dawley rats are used for this study. The weights range from 125-250 gms; however, weights in any given test have a range of ±20 gms. The rats are fasted 24 hours before testing, water is given ad lib. At the time of fasting, the rats are placed in individual cages with wide mesh bottoms. This eliminates the problem of cannibalism and coprophagia. On the day of testing, the rats are weighed beforehand to determine the weight range and to allow for even distribution. Surgery is carried out under light ether anesthesia. As soon as the rat is anesthetized, its teeth are removed using a small pinch pliers. A midline incision is made on the abdomen about 11/2 cm long and the stomach is exposed. If, at this point, the stomach is filled with food or fecal material, the rat is discarded except for orally administered rats. In this case, the stomach contents are gently squeezed into the duodenum. Using a 4-0 polyester fiber suture, a purse string stitch is placed on the fundic portion of the stomach taking care to avoid any blood vessels in the area. A small nick is made into the stomach in the center of the purse string and a cannula, consisting of a small vinyl tube with a flange on one end, is put into the stomach and the purse string is closed tightly around the flange. Immediately following this, the rat is dosed intraduodenally using a volume of 0.5 ml per 100 gm body weight. The abdominal wall and skin are closed simultaneously with three to four 18 mm wound clips. The rat is then placed in a box containing a longitudinal slit which allows the cannula to hang freely and the rat is able to move about unencumbered. At the completion of the procedure, the time is marked 0 minutes. The rat is allowed to stabilize for 30 minutes, at which time the collection tube is discarded and replaced with a clean collection tube to receive the gastric juice. Only a one-hour collection is made for a screening study. In evaluation studies, one- and two-hour collections are made. At the end of the study, the cannula is pulled out and the rat is sacrificed. The gastric contents collected are drained into a centrifuge tube and centrifuged to pack down the sediment. The volume is read and a 1 ml aliquot of the supernatant is put into a beaker containing distilled water and titrated to pH 7 using 0.01 N NaOH. Mean values are determined for volume, titratable acid and total acid output where volume equals total ml of gastric juice minus sediment, titratable acid (mEq/1) equals amount of 0.01 N NaOH needed to titrate the acid to pH 7 times 10 and total acid output equals titratable acid times volume. Results are reported in percent inhibition over control values. In studies using oral administration, the drugs are dosed in a volume of 1 ml per 100 gm body weight one hour before surgery (pretreatment equals 90 minutes). In subcutaneous studies, the drug may be given immediately after the surgical procedure (pretreatment equals 30 minutes) or after the 30-minute stabilization period when the collection tube is changed (pretreatment time equals 0 minutes). The volume used in subcutaneous studies is 0.2 ml per 100 gm body weight.

[2] = heat sensitivity of isolated salt; assay type: physicochemical
Method: Maintained a temperature of -10° to -13° C. throughout the addition and stirred at -10° to -15° for 3 more hours. Stored the reaction mixture in the refrigerator at +4° C. overnight. Allowed to warm to +10° C. then placed in ice/ H2 O bath and acidified to pH<3 with 10% HCl. Added to 1400 ml of ice/H2 O and stirred. Filtered some insoluble material and the filtrate basified with solid K2 CO3 (keep cold!) to pH 8-9. Filtered the resulting white solid, the free base of the product. Immediately suspended in 200 ml of MeOH and dissolved by addition of ethereal HCl to pH<3. The solvent and excess HCl were removed in vacuo to yield the crude product, a white solid. The free base was regenerated again as above and converted to the hydrochloride as before. […] 210°--212° C.

sensitivity to heat [2]: sensitive to heat | loss of HCl on heating ([2]; above 50° /vac): may lose HCl
SMILES: NC1=NCCN1C(=O)Nc1ccc(Cl)c(Cl)c1 [Example 8, 2-Amino-N-(3,4-dichlorophenyl)-4,5-dihydro-1H-imidazole-1carboxamide Monohydrochloride Monohydrate, Compound with 1,1'Oxybisethane (12:1)]
Duration [1]: 2.0 h | Effect on heart rate [1]: -68 beats/min | Max. decr. in MAP [1]: 44 mm Hg | inhibition in vivo at 20 mg/kg (Gastric fistula rat; intraduodenal, 20 mg/kg I.D., read-out: % Inhibition of gastric secretion): 96% | ED50 (Gastric fistula rat; po, 1 hr): 24.8 mg/kg
